pIC50: −log10 of the molar value.
Tests used:
[1] = tested on: tyrosinase activity of normal human epidermal melanocytes; experiment: Tyrosinase activity of normal human melanocytes in culture (72 h treatment, lysate, L-Dopa substrate, absorbance 450 nm); format: cell-based; settings: for Stimulation of the tyrosinase activity: 72 h
Protocol: a) Melanocyte Culture Conditions:
Normal human epidermal melanocytes are cultured (9th passage) in melanocyte growth medium M2 supplemented with:
Promocell C24300 supplements
Penicillin 50 IU/ml and streptomycin 50 μg/ml (Invitrogen) under standard temperature conditions (37° C.) at 5% CO2.
b) Preparation of the Solutions of the Test Compound:
The final titre of the prepared solutions is 10 mM. The final test concentrations range from 0.1 to 10 μM (PGE2) and 1 to 10 μM (15-PGDH inhibitors).
c)Principle of the Tests:
The tests performed consist in measuring the […] alone or combined with PGE2* on the overall activity of tyrosinase. *PGE2 is a pigmentation modulator that is deactivated by the enzyme 15-PGDH.
The melanocytes are cultured in 96-well plates up to confluence (culture conditions described in a) and the supernatant of each of the wells is then removed and replaced with the medium containing the compounds to be evaluated.
Thus (in triplicate), the 15-PGDH inhibitor alone at 1 μM and 10 μM or, for each of these first conditions, in the presence of 0.1 μM, 1 μM or 10 μM of PGE2.
The cultures are maintained under these various conditions for 72 h, the supernatants are then removed and the cell lawns are washed with a phosphate buffer (pH=7.2). The cells are lysed with a pH 7.2 phosphate buffer containing 1% Triton X100.
The tyrosinase activity of each of the lysates is then estimated against a fungal tyrosinase range (Sigma T7755).
The methodology implemented uses L-Dopa as reaction substrate (45 minutes at 37° C.); the formation of melanin is assessed by measuring the absorbance at 450 nm.
In this test, two references are also evaluated: kojic acid (a tyrosinase inhibitor introduced at 0.1% into the culture medium) and isobutyl methyl xanthine (IBMX), a phosphodiesterase inhibitor which, by limiting the catabolism of cAMP, contributes towards increasing the overall tyrosinase activity as assessed in this test.

type-1 15-PGDH = biological target: T1, type-1 15-PGDH (Homo sapiens, UniProt P15428); experiment: Test on type-1 15-PGDH (spectrophotometric, NADH formation at 340 nm, PGE2 substrate); format: biochemical; settings: 37° C., pH 7.4 Tris buffer, 1.5 mM β-NAD, 50 μM Prostaglandin E2
T1 construct: made in house
T1 sequence (P15428 1-266): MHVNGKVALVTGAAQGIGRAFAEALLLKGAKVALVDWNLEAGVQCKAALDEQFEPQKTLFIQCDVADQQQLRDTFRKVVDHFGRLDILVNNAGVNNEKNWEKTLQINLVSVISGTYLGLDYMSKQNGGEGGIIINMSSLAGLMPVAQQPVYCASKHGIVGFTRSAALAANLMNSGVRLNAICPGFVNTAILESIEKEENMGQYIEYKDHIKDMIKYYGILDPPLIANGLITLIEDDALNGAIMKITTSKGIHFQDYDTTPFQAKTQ
Protocol: For the purposes of the test, this suspension is thawed and stored in ice.
0.965 ml of this buffer (brought to 37° C. beforehand) is introduced into the cuvette of a spectrophotometer (Perkin-Elmer, Lambda 2) thermostatically maintained at 37° C., the measuring wavelength of which is set at 340 nm. 0.035 mL of enzymatic suspension at 37° C. is introduced into the cuvette concomitantly with the recording (corresponding to an increase in the optical density at 340 nm). The maximum reaction rate is recorded.

Structure (SMILES): CC(C)(C)c1ccc(Oc2ccccc2/C=C2\SC(=O)N=C2[O-])cc1.[Na+] [Compound 4, (5Z)-5-[2-(4-tert-butylphenoxy)benzylidene]-1,3-thiazolidine-2,4-dione]
- Stimulation of the tyrosinase activity ([1]; Compound 4 1 μM + PGE2 0.1 μM): +27%
- Stimulation of the tyrosinase activity ([1]; Compound 4 1 μM + PGE2 1 μM): +40%
- Stimulation of the tyrosinase activity ([1]; Compound 4 1 μM + PGE2 10 μM): +32%
- Stimulation of the tyrosinase activity ([1]; Compound 4 1 μM alone): +16%

Structure (SMILES): O=C1NC(=O)/C(=C\c2ccc(OCc3cccc(Cl)c3)cc2)S1 [Compound 13]
- pIC50 (type-1 15-PGDH): 5.30

Structure (SMILES): O=C1NC(=O)/C(=C/c2ccccc2Oc2ccc(Br)c(F)c2)S1 [Compound 14]
- pIC50 (type-1 15-PGDH): 5.81

Structure (SMILES): CCCCC[C@H](O)/C=C/[C@H]1[C@H](O)CC(=O)[C@@H]1C/C=C\CCCC(=O)O [PGE2, Prostaglandin E2, reference compound]
- Stimulation of the activity of tyrosinase ([1]; PGE2 alone at 0.1 μM): +3%
- Stimulation of the activity of tyrosinase ([1]; PGE2 alone at 1 μM): +9%
